Experiments:
Format in all cases: in vivo, mouse
[1] = test system: OVO857_CIS ("OVO0875") ovarian PDX; test: OVO857_CIS ovarian PDX model; conditions: for Tumor growth inhibition (TGI %): OVO857 PDX; for Mean Tumor volume (mm^3) ± SEM / TGI (%): OVO875 ovarian cancer PDX
Protocol: (§1) In-house in vivo patient derived xenograft (PDX) efficacy studies were conducted using 2 different ovarian PDX models, OVO857_CIS (“OVO0875”) and CTG3226. 6-8-week-old female NSG (NOD-SCID IL2Rgamma^null) as seed mice were implanted subcutaneously with tumor tissue fragments. When sufficient seed animals reached 1000-1500 mm^3, tumors were harvested, and fragments were implanted into study animals. When tumor volume reached approximately 150-250 mm^3, mice were randomly assigned into different groups (n=3 mice per group). One group received no treatment. Four groups were administered intravenously 10, 5, 2.5 and 1.25 mg/kg AB1370049-SG3932 DAR8 respectively. Two groups were administered intravenously 5 and 2.5 mg/kg FRα-DM4 ADC (“biosimilar to mirvetuximab soravtansine”, with a DAR of about 3) respectively. All dosed animals received drug intravenously as a single dose at 10 ml/kg, on day 39 for OVO857_CIS and day 46 for CTG3226 PDX models.
(§2) Tumor volumes were measured by digital caliper and the volumes of tumors were calculated using the following formula: tumor volume=[length (mm)×width (mm)^2×0.52, where the length and width are the longest and shortest diameters of the tumor, respectively. Body weights were measured twice weekly to assess tolerability of the treatments.
(§3) The growth of tumors in each experimental group was expressed as the mean tumor volume (mm^3)±SEM of the number of animals used.
(§4) Tumor growth inhibition (TGI) was calculated by comparing each treatment group to the untreated control group. Percentage inhibition was calculated from the group means using the following formula: […]
(§5) Where C is mean tumor volume of untreated control group and T is mean tumor volume of treated groups.

[2] = test system: CTG3226 ovarian PDX; test: CTG3226 ovarian PDX model; conditions: for Tumor growth inhibition (TGI %): CTG3226 PDX; for Mean Tumor volume (mm^3) ± SEM / TGI (%): CTG3226 ovarian cancer PDX
Protocol: as §1, §2, §3, §4, §5

[3] = test system: FRα-DM4-resistant OVCAR-3 tumors; test: FRα-DM4-resistant OVCAR3 xenograft model; conditions: FRα-DM4 resistant OVCAR3 tumors re-implanted in new host mice; two doses (Q2W) of 5 mg/kg
Protocol: To develop the OVCAR3 xenograft model, 10×10^6 cells/mouse in 50% Matrigel were inoculated subcutaneously into female 6-8-week-old female NSG (NOD-SCID IL2Rgamma^null). When tumour volume reached within the range of 200-600 mm^3, mice were dosed intravenously with FRα-DM4 ADC (“biosimilar to mirvetuximab soravtansine”, with a DAR of about 3) at 5 mg/kg, once every 2 weeks (Q2W) continuously until tumours relapsed and began to grow in size again. Among mice relapsed after 8 rounds of Q2W dosing, 4 mice were selected and re-challenged with AB1370049-SG3932 DAR8 intravenously at 5 mg/kg Q2W, receiving 2 rounds of AB1370049-SG3932 DAR8 treatment.
Separately, relapsed tumor from an additional mouse was excised and re-implanted subcutaneously into female 6-8-week-old female NSG (NOD-SCID IL2Rgamma^null) mice. […]
as §2, with “(mm)× width” for “(mm)×width”
as §3

FRα-DM4 ADC: "biosimilar to mirvetuximab soravtansine", with a DAR of about 3
Tumor growth inhibition (TGI %) ([1]; single iv dose 2.5 mg/kg): 2% | Tumor growth inhibition (TGI %) ([1]; single iv dose 5 mg/kg): 24% | Mean Tumor volume (mm^3) ± SEM ([1]; single iv dose 2.5 mg/kg): 1882.00 ± 199.43 mm^3 | TGI (%) ([1]; single iv dose 2.5 mg/kg): 2.40% | Mean Tumor volume (mm^3) ± SEM ([1]; single iv dose 5 mg/kg): 1457.15 ± 250.01 mm^3 | TGI (%) ([1]; single iv dose 5 mg/kg): 24.43% | Tumor growth inhibition (TGI %) ([2]; single iv dose 2.5 mg/kg): no activity | Tumor growth inhibition (TGI %) ([2]; single iv dose 5 mg/kg): 76.5% | Mean Tumor volume (mm^3) ± SEM ([2]; single iv dose 2.5 mg/kg): 1127.58 ± 481.10 mm^3 | TGI (%) ([2]; single iv dose 2.5 mg/kg): −16.66% | Mean Tumor volume (mm^3) ± SEM ([2]; single iv dose 5 mg/kg): 226.86 ± 46.03 mm^3 | TGI (%) ([2]; single iv dose 5 mg/kg): 76.53% | TGI (%) [3]: still resistant to the treatment

— patent US20230295293A1, “BINDING MOLECULES AGAINST FRa” (AstraZeneca AB, priority 2022, published 2023)
